Measured values reported in paper PMC6826616, “Topical 2′-Hydroxyflavanone for Cutaneous Melanoma” (Cancers, 2019).

What was measured:
Type in all cases: cell-based
B16-F10 cells = experiment: MTT cytotoxicity assay, B16-F10; conditions: Mus musculus, Table 1, agent alone, read-out: IC50
Excerpt: (§1) We studied the growth-inhibitory effects of 2HF on the B16-F0 and B16-F10 murine melanoma cell lines as well as on the SK-MEL-24 human melanoma cell line. B16-F10 and SK-MEL-24 have been shown in previous studies to be highly resistant to treatment and much more invasive than B16-F0 [32]. […] The absorption value measured upon reduction of the MTT dye by functional mitochondria is an indirect measure of cell number that cannot distinguish inhibited cell proliferation from apoptotic or necrotic cell death. By counting viable (trypan-blue dye-excluding) cells using a hemacytometer, we verified that 2HF did indeed cause cell death.
(§2) Figure 1 Mouse and human melanoma cell survival following 2′-hydroxyflavanone (2HF) treatment.
(§3) The IC50 of 2HF on B16-F0, B16-F10, and SK-MEL-24 cells was determined by MTT cytotoxicity assay. Cells were harvested and Trypan Blue dye exclusion test was used to determine the number of viable cells present in a cell suspension using a hemocytometer. The cell suspension was diluted to 5 × 10^4 cells/mL with Dulbecco’s Modified Eagle’s Medium (DMEM) complete medium and 5000 cells/well were plated in 96-well plates. After 24 h incubation at 37 °C, cells were treated with 2HF concentrations ranging from 0–200 µM (8 replicates per plate). After 48 or 72 h incubation, 40 µL of MTT (5 mg/mL) solution was added. After 4 h incubation, the plate was centrifuged at 700× g for 5 min and medium was aspirated completely. Then, 50 µL DMSO was added to each well to dissolve the purple precipitate on the rocking platform for about 15 min. The absorbance was then measured at 490 nm using a 96-well microplate reader (Spectramax Plus, Molecular Devices, Inc, San Jose, CA, USA).

B16-F0 cells = experiment: MTT cytotoxicity assay, B16-F0; conditions: Mus musculus, B16F0; Table 1, agent alone; read-out: IC50
Excerpt: as §1, §2, §3

SK-MEL-24 cells = experiment: MTT cytotoxicity assay, SK-MEL-24; conditions: Homo sapiens, Table 1, agent alone, read-out: IC50
Excerpt: as §1, §2, §3

## COC1CCN(C(=O)c2cc(Cc3n[nH]c(=O)c4ccccc34)ccc2F)CC1 [PARP1i, AZD 2461, reference compound]
B16-F10 cells
  IC50: 29.9 ± 28.5 µM
B16-F0 cells
  IC50: 16.5 ± 4.86 µM
SK-MEL-24 cells
  IC50: 55 ± 23.9 µM
